# Measurements taken from US20150157648A1, “NUTRITIONAL APPROACH TO IMPROVING ATHLETIC PERFORMANCE AND REDUCING INJURY WITH L-ERGOTHIONEINE AND/OR VITAMIN D2” (priority 2012, published 2015).
# How the values were obtained:
# [1] = after mushroom consumption, healthy men; cited from earlier work
# [2] = test system: SNCA transgenic mouse model of PD; test: grip strength task in SNCA transgenic mouse model of PD; type: in vivo; settings: PD model mice, three months of treatment
# Text: Matched cohorts of an SNCA transgenic mouse model of PD were used to measure the therapeutic efficacy of the medical food formulation ErgoD2TM, created from a single mushroom species, Pleurotus […]. The outcomes measurements assessed improvement in grip strength and alpha-synuclein levels in the cortex and/or midbrain of the PD animals. […] No detectable motor behavior impairments, autonomic abnormalities, olfactory dysfunction, dopaminergic deficits, Lewy body inclusions or neurodegeneration are associated with α-synuclein expression in these mice (Kuo et al., 2010). As outlined in the results section, the mice were grouped at ten (10) mice/cohort and were fed a purina diet for three months with and without addition of the medical food ErgoD2TM, provided by Entia Biosciences, Inc. Three (3) test diets were created with the assistance of Carrie Schultz, Ph.D., Land O'Lakes Purina Feed, and each diet was color-coded. The control/placebo mouse diet consisted of Purina Modified LabDiet® (RMH 3000). The two treatment diets were RMH 3000 supplemented with (i) synthetic N-Acetyl Cysteine (NAC) @ 0.015% of total weight and (ii) the medical food ErgoD2TM @ 0.5% of total weight. […] The mouse is then pulled back gently until the grip is released and peak force at the point of release is recorded in Kg. […]
# IL-6 = IL-6 ELISA of whole blood cell lysate from alpha synuclein transgenic mice; type: in vivo; settings: one remaining sample per treatment group
# Description: We pursued this effect in our mice since the role of IL-6 and other neuroimmune factors need to be elucidated on PD. Alpha synuclein transgenic mice expressing the human gene for alpha-synuclein were treated with the medical food ErgoD2™ (Pleurotus; Table 3) or N-Acetylcysteine (NAC), and whole blood cell lysate samples from these mice were evaluated in triplicate using an ELISA for the presence of IL-6. The results were compared to those from untreated and wild-type controls.
# A serial dilution of provided standard solution allowed for the creation of a standard curve following absorbency reading. An exponential regression of this curve was used to extrapolate the concentration of IL-6 in the lysate samples based on their final absorbency values and accounting for dilution factors of the samples.
# Lysate samples taken from subjects #222 and #321 were clotted. A small amount of each was used during assay, but their relatively high corresponding dilution factors call into question the findings based on these samples.
# glutathione (GSH) = test: kinetic assay of plasma glutathione (GSH) in Pac-Tg (SNCA) transgenic mice; type: in vivo; settings: trend only: p=0.10 (Pleurotus), p=0.09 (NAC)
# Description: Our Pac-Tg (SNCA) mice transgenic mice express the human gene for human alpha-synuclein and these were assigned one of four treatment paradigms (including no treatment). Plasma samples taken from these mice were evaluated in duplicate using a kinetic assay protocol for the presence of glutathione (GSH), a measure of resilience to oxidative stress. The tested subject groups were treated with one of the following: Blazei Mushroom, Pleurotus mushroom, or n-acetyl cysteine (NAC). The results for these groups were compared to those for both untreated and wild-type controls.
# Data. A serial dilution of provided standard solution allowed for the creation of a standard curve following kinetic absorbance readings (FIGS. 6A and B). The change in absorbance (Vmax) over five minutes (six absorbance readings) was calculated for each standard and plotted against each standard's known GSH concentration. […] The change in absorbance for the second standard was calculated using only the first two kinetic readings (t=0, t=1) for the same reason. […] A linear regression of the resulting standard curve allowed for extrapolation of GSH levels in the assayed plasma samples based on their changes in absorbance (Vmax) over six minute-reads.
# Following tabulation of the data, results were omitted if they were not reproducible in duplicate using all six kinetic readings and within 30% precision. […]
# alpha-synuclein = alpha-synuclein ELISA of plasma, cortex and midbrain of SNCA transgenic mice; type: in vivo, mouse; settings: three months of diet; untreated controls 2.52±0.28
# Text: Matched cohorts of an SNCA transgenic mouse model of PD were used to measure the therapeutic efficacy of the medical food formulation ErgoD2TM, created from a single mushroom species, Pleurotus […]. The outcomes measurements assessed improvement in grip strength and alpha-synuclein levels in the cortex and/or midbrain of the PD animals. […] No detectable motor behavior impairments, autonomic abnormalities, olfactory dysfunction, dopaminergic deficits, Lewy body inclusions or neurodegeneration are associated with α-synuclein expression in these mice (Kuo et al., 2010). As outlined in the results section, the mice were grouped at ten (10) mice/cohort and were fed a purina diet for three months with and without addition of the medical food ErgoD2TM, provided by Entia Biosciences, Inc. Three (3) test diets were created with the assistance of Carrie Schultz, Ph.D., Land O'Lakes Purina Feed, and each diet was color-coded. […] Alpha-synuclein was measured using an ELISA kit (Invitrogen, Hu α-Synuclein ELISA Kit) according to the manufacturer's protocol. The α-synuclein concentration of each 1 mL homogenized midbrain lysate was calculated by interpolating absorbance readings to a standard curve and adjusting for necessary dilution factors and protein equivalencies. The mean α-synuclein concentration of the samples in each treatment group was then calculated. […]
# Drosophila melanogaster = test: survival of Drosophila under Paraquat-induced oxidative stress; type: in vivo; settings: for effect on Paraquat-induced oxidative stress (in words): single nutrient, pure form
# Description: The effect of Agaricus Blazei without enrichment, with Vitamin D2 enrichment, pure Vitamin D2 and control (vehicle for the delivery) on the survival rate of Drosophila melanogaster under Paraquat-induced oxidative stress condition was tested. The study focused on the control of Paraquat induced oxidative stress/biologic death. Paraquat is a very potent oxidative stress inducing chemical and causes death in animals and plants by the toxicity of released free radicals. Paraquat (10 mM concentration) (Sigma Aldrich) was used to chemically induce oxidative stress. Paraquat is the trade name for N,N′-dimethyl-4,4′-bipyridinium dichloride, a widely used herbicide. Paraquat, a viologen, is quick-acting and non-selective, killing green plant tissue on contact. It is also toxic to humans when swallowed. This is the most standard chemical used in experimental induction of oxidative stress using the Drosophila model system. It catalyzes the formation of reactive oxygen species (ROS). Paraquat will undergo redox cycling in vivo, gets reduced by an electron donor such NADPH, before being oxidized by an electron receptor such as dioxygen to produce superoxide, a major ROS.
# The following materials and methods were utilized. Vials containing 10 mM Paraquat (from Sigma Aldrich) in 5 ml of 1.2% Low melting point Agarose medium were prepared. A strip of half moist filter paper was inserted in the medium (with the wet end in). Yeast paste containing 1% concentration (w/w) of the various test materials (see above) mixed to homogeneity was prepared. Yeast paste without drug was used as control. Uniform aliquot (˜300 mg) of yeast paste with or without the test material) was applied to vials in such a way that yeast paste was on the glass surface and covered the dry end (top) of the filter paper strip. Freshly enclosed wild type isogenized Canton-S males and females were collected and starved on 1% agar medium for 5-6 hours. […] Flies were transferred once in 2 days and the number of flies surviving at each transfer was recorded.
# [3] = test system: Alzheimer's disease mutant fruit fly; test: survival and life span of Alzheimer's disease (APP over-expression) Drosophila model; type: in vivo; settings: APP induced in central brain by GAL4 driver
# Text: Type of Model (with specific Drosophila model of neurodegeneration, with references). The targeted over/ectopic expression of APP in the brain using a UAS promoter driven APP transgene, induced by a specific GAL4 trans-driver in the brain of a Drosophila model system, was used for this Example. Below is a reference for such over-expression of APP in the Drosophila model system and the combination gives a fully penetrant AD with limited life-span.
# β-Amyloid peptides and amyloid precursor protein (APP) play a deterministic role in Alzheimer's disease (AD). In Drosophila, the targeted expression of the key genes of AD, APP, causes generation of β-amyloid plaques and age-dependent neurodegeneration as well as progression to semi lethality, a shortened life span; genetic manipulations or pharmacological treatments with secretase inhibitors influenced the activity of the APP-processing proteases and modulated the severity of the phenotypes (Greeve I., et al., J. Neuroscience 24, 3899-3906 (2004)). The AD strain lives only for a few days after their eclosion (birth) as opposed to 65 days or more for wild type normal strains.
# We determined the extension of life span in the mutant strain for each test compound. We used a specific GAL4 driver that induces the APP gene in the central brain area at high levels (see above) and results in a fully penetrant lethality within a 2-3 weeks period.
structure (smiles),measurement,setting,value
"C[N+](C)(C)[C@@H](Cc1c[nH]c(=S)[nH]1)C(=O)[O-] [ET, L-Ergothioneine]",time to peak of ET in red blood cells (RBC),[1],2 h
"CC(=O)N[C@@H](CS)C(=O)O [NAC, N-Acetylcysteine]",grip testing (in words),[2],statistically significant improvement
same,IL-6 more than the untreated group,IL-6,8.7 pg/mL
same,IL-6 more than the wild-type group,IL-6,9.5 pg/mL
same,plasma glutathione concentration vs. untreated mice,glutathione (GSH),higher concentrations of glutathione
same,mean midbrain α-synuclein concentration,alpha-synuclein,2.17 ± 0.31 µg/mL
"C=C1CC[C@H](O)C/C1=C/C=C1\CCC[C@]2(C)[C@@H]([C@H](C)/C=C/[C@H](C)C(C)C)CC[C@@H]12 [pure Vitamin D2, Ergocalciferol]",survivability under Paraquat-induced oxidative stress,"Drosophila melanogaster; 10 mM Paraquat, 1% (w/w) test material in yeast paste, 10 days, 25 degrees C",13%+/−3%
same,effect on Paraquat-induced oxidative stress (in words),Drosophila melanogaster,no beneficial effect
same,survival rate of AD flies versus control,[3],no such effect
"C=C1CC[C@H](O)C/C1=C/C=C1\CCC[C@]2(C)[C@@H]([C@H](C)CCCC(C)C)CC[C@@H]12 [Vitamin D3, cholecalciferol]",effect on Paraquat-induced oxidative stress (in words),Drosophila melanogaster,no beneficial effect
same,survival rate of AD flies versus control,[3],no such effect
